Reference: patent US20080267882A1, “Imaging compounds, methods of making imaging compounds, methods of imaging, therapeutic compounds, methods of making therapeutic compounds, and methods of therapy” (Stanford University, priority 2007, published 2008)
Read-outs that look alike come from different tables or passages of the source. One block for each compound: values may come before it.

Tests used:
[1] = target: T1, integrin αvβ3 (Homo sapiens, UniProt P05106+P06756); assay: competitive cell binding assay using ^125I-echistatin on U87MG cells; settings: for receptor binding multivalent enhancement ratio (MVE): IC50 of RGD monomer divided by IC50 of RGD multimer
T1 construct: evaluated using U87MG cells (integrin αvβ3-positive); endogenous in cells; host or cells: U87MG human glioblastoma cells (ATCC)
Protocol: Experiments were performed on U87MG human glioblastoma cells with triplicate samples as previously reported.
In vitro integrin αvβ3-binding affinities and specificities of RGD4, PRGD4 and FPRGD4 were assessed via displacement cell binding assays using ^125I-echistatin as the integrin αvβ3-specific radioligand. Experiments were performed on U87MG human glioblastoma cells by the method previously described (J Nucl Med. 2005;46:1707-1718 J Nucl Med. 2006;47:1172-1180, which is incorporated herein by reference for the corresponding discussion). […] Experiments were performed with triplicate samples.
Experiments were performed with triplicate samples.
In vitro integrin-binding affinity and specificity of RGD multimers and DOTA-RGD multimers were assessed via competitive cell binding assays using ^125I-echistatin as the integrin αvβ3-specific radioligand (J Nucl Med. 2005;46:1707-1718, which is incorporated herein by reference for the corresponding discussion). […] Experiments were performed with triplicate samples.

[2] = system: U87MG cells; assay: cell adhesion assay on vitronectin coated plates; type: cell-based, human; settings: for anti-adhesion multivalent enhancement ratio (MVE): IC50 of RGD monomer divided by IC50 of RGD multimer
Protocol: Ninety-six well plates were coated with 2 μg/mL of fibronectin or vitronectin (Sigma-Aldrich) in PBS at 4° C. overnight and treated with 2% bovine serum albumin (BSA) for 1 h at 37° C. U87MG cells (human glioblastoma, ATCC; 2×10^5 cells/mL) with various concentrations of RGD multimers (50 nM, 200 nM, 800 nM) in 100 μL serum-free Dulbecco's modified Eagle's medium (DMEM) containing 0.1% BSA were incubated for 20 min at 37° C. The resulting mixture was added to the plates and incubated for 1 h at 37° C. Plates treated with BSA only were used as negative control. After removal of the medium by aspiration, 0.04% crystal violet solution was added and incubated for 10 min at room temperature. The wells were washed three times with PBS and 20 μL Triton X-100 were added for permeabilization. Distilled water (80 μL) was then added and the number of adherent cells was assessed with a microplate reader (Tecan; measurement wavelength: 550 nm; reference wavelength: 630 nm).

[3] = in vivo; settings: mouse, iv, 3.7 MBq, total radioactivity, U87MG tumor uptake
Protocol: (§1) PET scans and image analysis were performed using a microPET R4 rodent model scanner (Siemens Medical Solutions) as previously reported (J Nucl Med 2006;47:113-121 and J Nucl Med 2005;46:1707-1718, each of which is incorporated herein by reference for the corresponding discussion). Each mouse was tail-vein injected with about 3.7 MBq (100 μCi) of ^18F-FPRGD2 under isoflurane anesthesia. The 30-min dynamic scan (1×30 s, 4×1 min, 1×1.5 min, 4×2 min, 1×2.5 min, 4×3 min, total of 15 frames) was started 1 min after injection. Five min static PET images were also acquired at 1 h and 2 h post-injection (p.i.). The images were reconstructed by a 2-dimensional ordered-subsets expectation maximum (OSEM) algorithm and no correction was applied for attenuation or scatter.
(§2) PET scans and image analysis were performed using a microPET R4 rodent model scanner (Siemens Medical Solutions) as previously reported. For U87MG tumor model, mice (n=3) were tail-vein injected with about 3.7 MBq (100 μCi) of ^18F-FPRGD4 under isoflurane anesthesia and then subjected to a 30-min dynamic scan (1×30 s, 4×1 min, 1×1.5 min, 4×2 min, 1×2.5 min, 4×3 min, total of 15 frames) starting from 1 min p.i. Five min static PET images were also acquired at 1, 2, and 3 h p.i. The images were reconstructed by 2-dimensional ordered-subsets expectation maximum (OSEM) algorithm. No attenuation or scatter correction was applied. […] The 5-min static PET scans was then acquired at 30 min and 1 h p.i. Multiple time point static scans were also obtained for orthotopic MDA-MB-435, c-neu oncomouse, and subcutaneous DU145 tumor models after tail-vein injected with 3.7 MBq of ^18F-FPRGD4.
(§3) For each microPET scan, regions of interest (ROIs) were drawn over the tumor, normal tissue, and major organs by using vendor software (ASI Pro 5.2.4.0) on decay-corrected whole-body coronal images. The maximum radioactivity concentration (accumulation) within a tumor or an organ was obtained from mean pixel values within the multiple ROI volume, which were converted to counts/mL/min by using a conversion factor. Assuming a tissue density of 1 g/mL, the ROIs were converted to counts/g/min and then divided by the administered activity to obtain an imaging ROI-derived % ID/g. […]
(§4) PET scans and image analysis were performed using a microPET R4 rodent model scanner (Siemens Medical Solutions) as previously reported (J Nucl Med. 2005;46:1707-1718 and J Nucl Med. 2006;47:113-121, each of which is incorporated herein by reference for the corresponding discussion). About 9.3 MBq of ^64Cu-DOTA-RGD multimer was intravenously injected into each mouse under isoflurane anesthesia. Five minute static scans were acquired at 30 min, 1 h, 2 h, 6 h, and 20 h p.i. The images were reconstructed by a 2-dimensional ordered-subsets expectation maximum (OSEM) algorithm and no correction was applied for attenuation and scatter. For each microPET scan, regions of interest (ROIs) were drawn over the tumor, normal tissue, and major organs on decay-corrected whole-body coronal images. The radioactivity concentration (accumulation) within a tumor was obtained from the maximum value within the multiple ROIs and then converted to % ID/g.
(§5) PET scans and image analysis were performed using a microPET R4 rodent model scanner (Siemens Medical Solutions) as previously reported (J Nucl Med. 2006;47:113-21 and J Nucl Med. 2005;46:1707-18, which is incorporated herein by reference for the corresponding discussion). […] The 60-min dynamic scan (5×1 min, 10×3 min, 5×5 min, total of 20 frames) was started 1 min after injection. A 2 h time point static scan was also acquired after the 60 min dynamic scan. Five min static PET images were also acquired separately at 30 min, 1 h and 2 h time points post-injection (p.i.) for another set of tumor-bearing mice (n=3/tracer). The images were reconstructed by a 2-dimensional ordered-subsets expectation maximum (OSEM) algorithm and no correction was necessary for attenuation or scatter correction. […]

[4] = system: U87MG tumor-bearing mice; assay: in vivo; settings: mouse
Protocol: as §1, §2, §3, §4, §5

[5] = mouse, in vivo
Protocol: A U87MG tumor mouse was intravenously injected with 3.7 MBq of ^18F-FPRGD2. At 1 h after injection, the mouse was sacrificed, the blood, urine, liver, kidneys, and the U87MG tumor were collected and metabolite analysis was carried out as previously reported (J Nucl Med 2006;47: 113-121 and J Nucl Med 2006;47:1172-1180, each of which is incorporated herein by reference for the corresponding discussion). In brief, blood sample was immediately centrifuged for 5 min at 13,200 rpm. Other tissues were homogenized and then centrifuged for 5 min at 13,200 rpm. The supernatant was each passed through a C18 Sep-Pak cartridge. The urine sample was directly diluted with 1 mL of PBS and passed through a C18 Sep-Pak cartridge. The cartridges were each washed with 2 mL of water and eluted with 2 mL of ACN containing 0.1% TFA. The ACN eluent was concentrated and injected onto the analytical HPLC. The eluent was collected with a fraction collector (0.5 min/fraction) and the radioactivity of each fraction was measured with the γ-counter.
The metabolic stability of ^18F-FPTA-RGD2 was evaluated in an athymic nude mouse bearing a U87MG tumor. Sixty min after intravenous injection of 2 MBq of ^18F-FPTA-RGD2, the mouse was sacrificed and relevant organs were harvested. The blood was collected and immediately centrifuged for 5 min at 13,200 rpm. Liver, kidneys and tumor were homogenized and then centrifuged for 5 min at 13,200 rpm. After removal of the supernatants, the pellets were washed with 1 mL PBS. For each sample, supernatants of both centrifugation steps of blood, liver, and kidneys were combined and passed through C18 Sep-Pak cartridges. The urine sample was directly diluted with 1 mL of PBS and passed through a C18 Sep-Pak cartridge. The cartridges were each washed with 2 mL of water and eluted with 2 mL of ACN containing 0.1% TFA. After evaporation of the solvent, the residues were redissolved in 1 mL PBS and were injected onto the analytical HPLC. The eluent was collected with a fraction collector (0.5 min/fraction) and the radioactivity of each fraction was measured with the γ-counter.

[6] = Example 4, n=3, read-out: IC50 (inhibition of ^125I-echistatin binding to U87MG cells)

Compound: N=C(N)NCCC[C@@H]1NC(=O)[C@H](CCCCNC(=O)CC[C@H](NC(=O)CC[C@H](N)C(=O)N[C@@H](CCC(=O)NCCCC[C@@H]2NC(=O)[C@@H](Cc3ccc(O)cc3)NC(=O)[C@H](CC(=O)O)NC(=O)CNC(=O)[C@H](CCCNC(=N)N)NC2=O)C(=O)NCCCC[C@@H]2NC(=O)[C@@H](Cc3ccc(O)cc3)NC(=O)[C@H](CC(=O)O)NC(=O)CNC(=O)[C@H](CCCNC(=N)N)NC2=O)C(=O)NCCCC[C@@H]2NC(=O)[C@@H](Cc3ccc(O)cc3)NC(=O)[C@H](CC(=O)O)NC(=O)CNC(=O)[C@H](CCCNC(=N)N)NC2=O)NC(=O)[C@@H](Cc2ccc(O)cc2)NC(=O)[C@H](CC(=O)O)NC(=O)CNC1=O [RGD4, E{E[c(RGDyK)]2}2]
- IC50 ([1]; Example 2, n=3, read-out: IC50 (inhibition of ^125I-echistatin binding to U87MG cells)): 39.1 ± 5.5 nM
- fold higher integrin αvβ3 avidity than the RGD dimer ([1]; Example 4): about 3 fold
- IC50 [1, 6]: 35 nM
- receptor binding multivalent enhancement ratio (MVE) [1]: 5.9
- anti-adhesion multivalent enhancement ratio (MVE) [2]: 8.4
- IC50 ([2]; vitronectin coated plates, n=4, read-out: calculated IC50 (inhibition of U87MG cell adhesion)): 320 nM

- further fold increase of integrin avidity over RGD tetramer ([1]; Example 4): 3 fold
- IC50 ([1]; Example 4, introduction, read-out: IC50 value (αvβ3 integrin binding)): 10 nM
- IC50 [1, 6]: 10 nM
- receptor binding multivalent enhancement ratio (MVE) [1]: 20.3
Compound: N=C(N)NCCC[C@@H]1NC(=O)[C@H](CCCCNC(=O)CC[C@H](NC(=O)CC[C@H](NC(=O)CC[C@H](N)C(=O)N[C@@H](CCC(=O)N[C@@H](CCC(=O)NCCCC[C@@H]2NC(=O)[C@@H](Cc3ccc(O)cc3)NC(=O)[C@H](CC(=O)O)NC(=O)CNC(=O)[C@H](CCCNC(=N)N)NC2=O)C(=O)NCCCC[C@@H]2NC(=O)[C@@H](Cc3ccc(O)cc3)NC(=O)[C@H](CC(=O)O)NC(=O)CNC(=O)[C@H](CCCNC(=N)N)NC2=O)C(=O)N[C@@H](CCC(=O)NCCCC[C@@H]2NC(=O)[C@@H](Cc3ccc(O)cc3)NC(=O)[C@H](CC(=O)O)NC(=O)CNC(=O)[C@H](CCCNC(=N)N)NC2=O)C(=O)NCCCC[C@@H]2NC(=O)[C@@H](Cc3ccc(O)cc3)NC(=O)[C@H](CC(=O)O)NC(=O)CNC(=O)[C@H](CCCNC(=N)N)NC2=O)C(=O)N[C@@H](CCC(=O)NCCCC[C@@H]2NC(=O)[C@@H](Cc3ccc(O)cc3)NC(=O)[C@H](CC(=O)O)NC(=O)CNC(=O)[C@H](CCCNC(=N)N)NC2=O)C(=O)NCCCC[C@@H]2NC(=O)[C@@H](Cc3ccc(O)cc3)NC(=O)[C@H](CC(=O)O)NC(=O)CNC(=O)[C@H](CCCNC(=N)N)NC2=O)C(=O)NCCCC[C@@H]2NC(=O)[C@@H](Cc3ccc(O)cc3)NC(=O)[C@H](CC(=O)O)NC(=O)CNC(=O)[C@H](CCCNC(=N)N)NC2=O)NC(=O)[C@@H](Cc2ccc(O)cc2)NC(=O)[C@H](CC(=O)O)NC(=O)CNC1=O [RGD octamer, E(E{E[c(RGDyK)]2}2)2]
- anti-adhesion multivalent enhancement ratio (MVE) [2]: 25.6
- times as effective as the RGD monomer ([2]; vitronectin coated plates): 27 times

- tissue uptake at 0.5 h ([3]; athymic nude): 1.9 ± 0.2 %ID/g
- tissue uptake at 1 h ([3]; athymic nude): 1.4 ± 0.2 %ID/g
- tissue uptake at 2 h ([3]; athymic nude): 1.1 ± 0.1 %ID/g
- tissue uptake at 0.25 h ([3]; nude): 2.35 %ID/g
- tissue uptake at 0.5 h ([3]; nude): 1.84 %ID/g
- tissue uptake at 1 h ([3]; nude): 1.47 %ID/g
- tissue uptake at 2 h ([3]; nude): 1.12 %ID/g
- U87MG tumor uptake ([4]; iv, 3.7 MBq, 5 min): 3.24 % ID/g
Compound: N=C(N)NCCC[C@@H]1NC(=O)[C@H](CCCCNC(=S)Nc2ccc(C[C@H]3CN(CC(=O)O)CCN(CC(=O)O)CCN3CC(=O)O)cc2)NC(=O)[C@@H](Cc2ccc(O)cc2)NC(=O)[C@H](CC(=O)O)NC(=O)CNC1=O [^68Ga-NOTA-RGD1, metal not drawn]

- residence time for kidneys [4]: 0.029 h
Compound: ^18F-FB-E[c(RGDyK)]2 [^18F-FRGD2, reference compound]

- extraction efficiency (radioactivity in the supernatant) [5]: 86-99%
- non-retained fraction (activity not trapped on C18 cartridges) [5]: 1-41%
Compound: ^18F-fluoro-PEG-triazole-E(RGDyK)2 [^18F-FPTA-RGD2]
